How the values were obtained:
Prothrombin [1] = target: T1, Prothrombin (Homo sapiens, UniProt P00734); assay: Inhibitory concentration required against thrombin was determined
Prothrombin [2] = target: T1, Prothrombin; assay: Inhibition of thrombin
Serine protease 1 [3] = target: T2, Serine protease 1 (Homo sapiens, UniProt P07477); assay: Inhibitory concentration required against trypsin was determined
Serine protease 1 [4] = target: T2, Serine protease 1; assay: Compound was tested for percent inhibition against trypsin at 100 uM
Trypsin = assay: Compound was tested for percent inhibition against trypsin at 100 uM

T2 sequence (P07477 whole entry): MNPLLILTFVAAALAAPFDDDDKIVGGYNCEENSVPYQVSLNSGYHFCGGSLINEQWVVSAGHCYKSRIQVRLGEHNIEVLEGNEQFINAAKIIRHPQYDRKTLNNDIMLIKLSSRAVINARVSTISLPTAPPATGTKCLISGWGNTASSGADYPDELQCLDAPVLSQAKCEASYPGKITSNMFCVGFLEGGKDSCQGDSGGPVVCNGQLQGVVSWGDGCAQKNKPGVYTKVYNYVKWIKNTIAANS

Row | SMILES | IC50 (Prothrombin [1]) [nM] | Ki (Prothrombin [2]) [nM] | IC50 (Serine protease 1 [3]) [nM] | inhibition (Serine protease 1 [4]) [%] | inhibition (Trypsin) [%]
1 | N=C(N)N1CCCC(C[C@H](NC(=O)CN2C(=O)CN(CCCc3ccccc3)C(=O)[C@H]2Cc2cccc(Cl)c2)C(=O)c2nccs2)C1 (some centres not stated) | 390 | 20 | 4800 | – | –
2 | N=C(N)N1CCC[C@@H](C[C@H](NC(=O)CN2C(=O)CN(CCCc3ccccc3)C(=O)[C@H]2Cc2ccccc2)C(=O)c2nccs2)C1 | 170 | 55 | 9100 | – | –
3 | N=C(N)N1CCCC(C[C@H](NC(=O)CN2C(=O)CN(CCCc3ccc(Cl)cc3)C(=O)[C@H]2Cc2ccccc2)C(=O)c2nccs2)C1 (some centres not stated) | 110 | – | 4800 | – | –
4 | CNC(=O)[C@H](CC1CCCN(C(=N)N)C1)NC(=O)CN1C(=O)CN(CCCc2ccccc2)C(=O)[C@H]1Cc1ccccc1 (some centres not stated) | 440 | 55 | 2300 | – | –
5 | C[C@@H]1C(=O)N(CCCc2ccccc2)CC(=O)N1CC(=O)N[C@@H](C[C@@H]1CCCN(C(=N)N)C1)C(=O)c1nccs1 | 880 | – | 340 | – | –
6 | N=C(N)NCCC[C@H](NC(=O)CN1C(=O)CN(CCCc2ccccc2)C(=O)[C@H]1Cc1ccccc1)C(=O)O | – | – | – | 20 | 20
7 | N=C(N)N1CCCC(C[C@H](NC(=O)CN2C(=O)CN(Cc3ccccc3)C(=O)[C@@H]2Cc2ccc3ccccc3c2)C(=O)c2nccs2)C1 (some centres not stated) | 170 | 3.5 | – | – | –
8 | COc1ccc(CCCN2CC(=O)N(CC(=O)N[C@@H](CC3CCCN(C(=N)N)C3)C(=O)c3nccs3)[C@H](Cc3ccccc3)C2=O)cc1 (some centres not stated) | 160 | – | 14000 | – | –
9 | N=C(N)N1CCCC(C[C@H](NC(=O)CN2C(=O)CN(CCCc3ccccc3)C(=O)[C@H]2Cc2ccc(Cl)cc2)C(=O)c2nccs2)C1 (some centres not stated) | 280 | – | 17000 | – | –
10 | N=C(N)NCCC[C@H](NC(=O)CN1C(=O)CN(CCCc2ccccc2)C(=O)[C@H]1Cc1ccccc1)C(=O)c1nccs1 | 3400 | – | 96 | – | –
11 | CCCCN1CC(=O)N(CC(=O)N[C@@H](CC2CCCN(C(=N)N)C2)C(=O)c2nccs2)[C@H](Cc2ccccc2)C1=O (some centres not stated) | 340 | 32 | 15000 | – | –

More lines, now with the values ahead:

Row | IC50 (Prothrombin [1]) [nM] | Ki (Prothrombin [2]) [nM] | IC50 (Serine protease 1 [3]) [nM] | inhibition (Serine protease 1 [4]) [%] | inhibition (Trypsin) [%] | SMILES
12 | 660 | 130 | 8700 | – | – | N=C(N)N1CCCC(C[C@H](NC(=O)CN2C(=O)CN(CCCc3ccccc3)C(=O)[C@H]2Cc2ccccc2)C(=O)N2CCCC2)C1 (some centres not stated)
13 | 6600 | 825 | – | 52 | – | N=C(N)N1CCCC(C[C@H](NC(=O)CN2C(=O)CN(CCCc3ccccc3)C(=O)[C@H]2Cc2ccccc2)C(=O)N2CCCCC2)C1 (some centres not stated)
14 | 1230 | – | 21000 | – | – | N=C(N)N1CCCC(C[C@H](NC(=O)CN2C(=O)CN(Cc3ccccc3)C(=O)[C@H]2Cc2ccccc2)C(=O)c2nccs2)C1 (some centres not stated)
15 | 18 | 1.2 | 9700 | – | – | N=C(N)N1CCCC(C[C@H](NC(=O)CN2C(=O)CN(CCCc3ccccc3)C(=O)[C@H]2Cc2ccccc2Cl)C(=O)c2nccs2)C1 (some centres not stated)
16 | – | – | – | 15 | 35 | N=C(N)NCCC[C@H](NC(=O)CN1C(=O)CN(CCCc2ccccc2)C(=O)[C@H]1Cc1ccccc1)C(N)=O
17 | 160 | 55 | 18200 | – | – | N=C(N)N1CCCC(C[C@H](NC(=O)CN2C(=O)CN(CCCc3ccccc3)C(=O)[C@H]2Cc2ccc3ccccc3c2)C(=O)c2nccs2)C1 (some centres not stated)
18 | 240 | – | 25000 | – | – | N=C(N)N1CCCC(C[C@H](NC(=O)CN2C(=O)CN(CCCc3ccc(O)cc3)C(=O)[C@H]2Cc2ccccc2)C(=O)c2nccs2)C1 (some centres not stated)
19 | 150 | 80 | 3700 | – | – | N=C(N)N1CCCC(C[C@H](NC(=O)CN2C(=O)CN(CCCc3ccccc3)C(=O)[C@H]2Cc2ccccc2)C(=O)c2nc3ccccc3s2)C1 (some centres not stated)
20 | 210 | – | 4100 | – | – | Cc1ccc(CCCN2CC(=O)N(CC(=O)N[C@@H](CC3CCCN(C(=N)N)C3)C(=O)c3nccs3)[C@H](Cc3ccccc3)C2=O)cc1 (some centres not stated)
21 | 350 | – | 8500 | – | – | N=C(N)N1CCCC(C[C@H](NC(=O)CN2C(=O)CN(CCCc3ccccc3)C(=O)[C@H]2C(c2ccccc2)c2ccccc2)C(=O)c2nccs2)C1 (some centres not stated)
22 | 250 | – | 7200 | – | – | N=C(N)N1CCCC(C[C@H](NC(=O)CN2C(=O)CN(CCCc3ccc(Cl)c(Cl)c3)C(=O)[C@H]2Cc2ccccc2)C(=O)c2nccs2)C1 (some centres not stated)
23 | 210 | – | 9100 | – | – | N=C(N)N1CCCC(C[C@H](NC(=O)CN2C(=O)CN(CCCc3ccc([N+](=O)[O-])cc3)C(=O)[C@H]2Cc2ccccc2)C(=O)c2nccs2)C1 (some centres not stated)
24 | 80 | 8 | 7800 | – | – | N=C(N)N1CCCC(C[C@H](NC(=O)CN2C(=O)CN(CCCc3ccccc3)C(=O)[C@H]2Cc2ccc(Cl)c(Cl)c2)C(=O)c2nccs2)C1 (some centres not stated)
25 | 370 | – | 7000 | – | – | CC(C)c1ccc(CCCN2CC(=O)N(CC(=O)N[C@@H](CC3CCCN(C(=N)N)C3)C(=O)c3nccs3)[C@H](Cc3ccccc3)C2=O)cc1 (some centres not stated)
26 | 990 | – | 45000 | – | – | N=C(N)N1CCCC(C[C@H](NC(=O)CN2C(=O)CN(CCc3ccccc3)C(=O)[C@H]2Cc2ccccc2)C(=O)c2nccs2)C1 (some centres not stated)

— ChEMBL document CHEMBL1132099, “The design of potent and selective inhibitors of thrombin utilizing a piperazinedione template: part 2” (Bioorg Med Chem Lett, 1999)
